According to PubChem BioAssay (NCI):
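Test compounds were applied to cells in 96-well plates for 48 hours at 5 doses. At the GI50, growth is halved. TGI: concentration producing complete growth inhibition.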

Legend:
Experiment in all cases: DTP human tumour cell line panel, 48 h
786-0 renal = test system: 786-0 renal
A498 renal = test system: A498 renal
A549 NSCLC = test system: A549 NSCLC
ACHN renal = test system: ACHN renal
BT-549 breast = test system: BT-549 breast
CAKI-1 renal = test system: CAKI-1 renal
CCRF-CEM leukemia = test system: CCRF-CEM leukemia
COLO 205 colon = test system: COLO 205 colon
DU-145 prostate = test system: DU-145 prostate
EKVX NSCLC = test system: EKVX NSCLC
HCC-2998 colon = test system: HCC-2998 colon
HCT-116 colon = test system: HCT-116 colon
HCT-15 colon = test system: HCT-15 colon
HL-60(TB) leukemia = test system: HL-60(TB) leukemia
HOP-62 NSCLC = test system: HOP-62 NSCLC
HOP-92 NSCLC = test system: HOP-92 NSCLC
HS 578T breast = test system: HS 578T breast
HT29 colon = test system: HT29 colon
IGROV1 ovarian = test system: IGROV1 ovarian
K-562 leukemia = test system: K-562 leukemia
KM12 colon = test system: KM12 colon
LOX IMVI melanoma = test system: LOX IMVI melanoma
M14 melanoma = test system: M14 melanoma
MALME-3M melanoma = test system: MALME-3M melanoma
MCF7 breast = test system: MCF7 breast
MDA-MB-231 breast = test system: MDA-MB-231 breast
MDA-MB-435 = test system: MDA-MB-435
MOLT-4 leukemia = test system: MOLT-4 leukemia
NCI-H226 lung = test system: NCI-H226 lung

`C/C(=C(/c1ccc(O)cc1)c1ccc(OCCN2CCCCCC2)cc1)c1ccccc1` gave a GI50 (786-0 renal) of 27.1 µM, a TGI (786-0 renal) greater than 100 µM and a GI50 (A498 renal) greater than 100 µM. The TGI (A498 renal) was greater than 100 µM, the GI50 (A549 NSCLC) was greater than 100 µM and the TGI (A549 NSCLC) was greater than 100 µM. It also gave a GI50 (ACHN renal) greater than 100 µM, a TGI (ACHN renal) greater than 100 µM and a GI50 (BT-549 breast) greater than 100 µM. It also gave a TGI (BT-549 breast) greater than 100 µM, a GI50 (CAKI-1 renal) of 65.9 µM and a TGI (CAKI-1 renal) greater than 100 µM. The GI50 (CCRF-CEM leukemia) was 76.2 µM, the TGI (CCRF-CEM leukemia) was greater than 100 µM and the GI50 (COLO 205 colon) was 17.9 µM. For the same compound, the TGI (COLO 205 colon) was 34.4 µM, the GI50 (DU-145 prostate) was greater than 100 µM and the TGI (DU-145 prostate) was greater than 100 µM. For the same compound, the GI50 (EKVX NSCLC) was greater than 100 µM, the TGI (EKVX NSCLC) was greater than 100 µM and the GI50 (HCC-2998 colon) was 34.1 µM. The TGI (HCC-2998 colon) was greater than 100 µM, the GI50 (HCT-116 colon) was 34.1 µM and the TGI (HCT-116 colon) was greater than 100 µM. It also gave a GI50 (HCT-15 colon) of 23.8 µM, a TGI (HCT-15 colon) of 69.9 µM and a GI50 (HL-60(TB) leukemia) of 26.5 µM. It also gave a TGI (HL-60(TB) leukemia) greater than 100 µM, a GI50 (HOP-62 NSCLC) greater than 100 µM and a TGI (HOP-62 NSCLC) greater than 100 µM. It also gave a GI50 (HOP-92 NSCLC) of 61.8 µM, a TGI (HOP-92 NSCLC) greater than 100 µM and a GI50 (HS 578T breast) of 60.7 µM. It also gave a TGI (HS 578T breast) greater than 100 µM, a GI50 (HT29 colon) of 27.7 µM and a TGI (HT29 colon) greater than 100 µM. For the same compound, the GI50 (IGROV1 ovarian) was greater than 100 µM, the TGI (IGROV1 ovarian) was greater than 100 µM and the GI50 (K-562 leukemia) was 22.7 µM. It also gave a TGI (K-562 leukemia) greater than 100 µM, a GI50 (KM12 colon) of 83.8 µM and a TGI (KM12 colon) greater than 100 µM. For the same compound, the GI50 (LOX IMVI melanoma) was 19.5 µM, the TGI (LOX IMVI melanoma) was 41.5 µM and the GI50 (M14 melanoma) was 35.5 µM. The TGI (M14 melanoma) was greater than 100 µM, the GI50 (MALME-3M melanoma) was 40.9 µM and the TGI (MALME-3M melanoma) was greater than 100 µM. It also gave a GI50 (MCF7 breast) of 0.0615 µM, a TGI (MCF7 breast) greater than 100 µM and a GI50 (MDA-MB-231 breast) greater than 100 µM. It also gave a TGI (MDA-MB-231 breast) greater than 100 µM, a GI50 (MDA-MB-435) greater than 100 µM and a TGI (MDA-MB-435) greater than 100 µM. For the same compound, the GI50 (MOLT-4 leukemia) was 32.6 µM, the TGI (MOLT-4 leukemia) was greater than 100 µM and the GI50 (NCI-H226 lung) was greater than 100 µM.
